{"source": "patent US12107222B2", "about": "“Liquid electrolyte comprising organic carbonates and cyclic sulfoxides for applications in lithium secondary batteries” (Forschungszentrum Juelich GmbH, priority 2018, dated 2024)", "origin": "cited, not measured here", "key": {"[1]": {"tested_on": "rat", "conditions": "in vivo"}, "[2]": {"tested_on": "rabbit"}, "[3]": {"tested_on": "human organism", "conditions": "classification in words"}, "[4]": {"tested_on": "rat"}, "[5]": {"tested_on": "rat", "remark": "listed apart in the source"}, "[6]": {"tested_on": "mouse"}}}
{"smiles": "CCC1COC(=O)O1", "note": "(stereo not drawn) [1,2-Butylene carbonate]", "values": [{"measurement": "LD50, rat, oral", "setting": "[1]", "value": "LD50, rat, oral: >5,000 mg/kg"}, {"measurement": "LD50, rabbit, dermal", "setting": "[2]", "value": "LD50, rabbit, dermal: >2,000 mg/kg^[13]"}]}
{"smiles": "O=S1(=O)CCCO1", "note": "[1,3-propane sultone]", "values": [{"measurement": "hazard classification", "setting": "[3]", "value": "carcinogenic and toxic"}]}
{"smiles": "O=C1OCCO1", "note": "[Ethylene carbonate]", "values": [{"measurement": "LD50, rat, dermal", "setting": "[4]", "value": "LD50, rat, dermal: >2,000 mg/kg"}, {"measurement": "LC50, rat, inhalative, 7 h", "setting": "[5]", "value": "LC50, rat, inhalative, 7 h: >1.268 mg/L^[12]"}]}
{"smiles": "CC1COC(=O)O1", "note": "(stereo not drawn) [Propylene carbonate]", "values": [{"measurement": "LD50, rat, oral", "setting": "[1]", "value": "LD50, rat, oral: >5,000 mg/kg"}, {"measurement": "LD50, rabbit, dermal", "setting": "[2]", "value": "LD50, rabbit, dermal: >2,000 mg/kg^[2]"}]}
{"smiles": "[O-][S+]1CCCC1", "note": "[Tetrahydrothiophene-1-oxide]", "values": [{"measurement": "LD50, mouse, intraperitoneal", "setting": "[6]", "value": "LD50, mouse, intraperitoneal: 3,500"}]}
{"smiles": "O=c1occo1", "note": "[Vinylene carbonate]", "values": [{"measurement": "hazard classification", "setting": "[3]", "value": "toxic on contact with the skin"}]}
